“Also recorded” adds a separate entry of the source.
Experiments:
EZH2 = assay: EZH2/EZH1 mRNA in cultured human islets (real-time RT-PCR); assay type: cell-based; conditions: PDGF-AA 50 ng/ml, 2 days
Description: Total RNA from freshly isolated or cultured islets after indicated treatments were purified using the Absolutely RNA miniprep purification kit (Stratagene) according to the manufacturer's instructions. RNA concentration was measured with a RiboGreen RNA quantification assay (Invitrogen). One-step quantitative RT-PCR was performed and analysed using an ABI Prism 7300 detection system (Applied Biosystems) with TaqMan one-step RTPCR Master Mix Reagents and appropriate amounts (10-100 ng) of islet total RNA as the template. We calculated the ratio of mRNA for the gene of interest to the amount of internal control mRNA of peptidylprolyl isomerase A (cyclophilin A, PPIA), and then normalized the ratio for each gene to its median. For islet studies, human islets were isolated either at Pittsburgh University Medical Center or the University of Alabama, Birmingham. Eight independent human islet preparations from juvenile donors at the age of 8 months, 1.0, 1.5, 2, 3, 4, 5 and 6 years, and three adult islet preparations from donors at the age of 39, 48 and 56 years were used in this study. After isolation, fresh islets were hand-picked and transferred to RPMI-1640 medium supplemented with 0.5% FBS, 0.2% BSA and 2% penicillin/streptomycin for an overnight recovery before experiments. […] To detect in vitro human islet β-cell proliferation stimulated by PDGF-AA, human islets were exposed to 50 μM BrdU for 24 h. Afterwards, human islets were processed in a similar way as in mouse islet studies for immunostaining of insulin, glucagon, PDX1 and BrdU. β-Cell proliferation rate was determined by quantifying percentage of insulin+ cells with BrdU+. More than 50 islets per group were counted for determining cultured human islet β-cell proliferation rate.

mouse islet β-cells = assay: In vitro mouse islet β-cell proliferation (BrdU incorporation); assay type: cell-based; conditions: juvenile (3 week-old) mouse islets, PDGF-AA 50 ng/ml, 2 days
Description: Mouse pancreatic islets were purified as described in Chen et al. (2009) Genes Dev. 23, 975-985 and used immediately for assays described in the text. To study Ezh2 induction in cultured islets exposed to mitogens, freshly isolated islets from 2-3-week old, and 7-12-month old C57BL/6 mice were recovered and equilibrated overnight at 37° C., 5% CO2 in RPMI-1640 medium supplemented with 0.5% fetal bovine serum (FBS), 0.2% bovine albumin (BSA) and 2% penicillin/streptomycin. Afterwards, islets were distributed into microplates or dishes, and treated with recombinant human PDGF-AA, prolactin or insulin (Sigma), with or without addition of pharmacological inhibitors, including Sunitinib (Selleck), […]0126 (Sigma), LY294002 (Sigma) or U-73122 (Sigma) at the indicated concentrations. Two days later, islets were harvested for RNA or protein extraction for real-time RTPCR or western blot analyses. To detect phosphorylation of Pdgfr-α by western blot, islets were exposed to PDGF-AA (with or without indicated pharmacological inhibitors) for 90 min before islet harvesting and protein extraction. To detect in vitro islet β-cell proliferation stimulated by PDGF-AA, a final concentration of 50 μM BrdU was introduced into each culture dish 24 h before harvest, followed by standard histological processing. Immunostaining of BrdU and insulin was performed on processed islets, and β-cell proliferation rate was determined by quantifying percentage of insulin+ cells with BrdU+. […] For measuring pancreatic β-cell mass or BrdU by morphometry, three to six mice for each group were analysed. At least five sections separated by more than 300 μm (pancreases) or 50 μm (cultured islets) were immunostained and assessed for each sample. Images were analysed with an ImagePro program by observers blinded to genotype, and pancreatic β-cell mass and percentage of BrdU+β-cells were calculated as described in Chen et al. Polycomb protein Ezh2 regulates pancreatic 6-cell Ink4a/Arf expression and regeneration in diabetes mellitus. […]

human EZH2 locus = assay: EZH2 locus ChIP analysis with anti-E2F1 antibody in human juvenile islets; assay type: cell-based; conditions: juvenile human islets exposed to PDGF-AA
Description: ChIPs were performed using a chromatin immunoprecipitation kit from Millipore. Briefly, freshly isolated mouse pancreatic islets or cultured human islets after the indicated treatments were pooled, and fixed with 2% formaldehyde for cross-linking for 20 min at room temperature (25° C.). After washing, islets were dissolved in SDS lysis buffer containing a proteinase inhibitor cocktail followed by sonication to shear the chromatin. Precleared chromatin from 150 to 300 islets was used for each ChIP sample with incubation of 1 to 5 μg of the appropriate antibodies at 4° C. overnight. The antibodies used in the ChIP assays included mouse anti-E2F1 (Millipore), rabbit anti-E2F4 (Santa Cruz Biotechnologies), rabbit or mouse polyclonal IgG (Millipore). […] After measurement of DNA concentration by PicoGreen DNA assay (Invitrogen), equivalent amounts of chromatin DNA from every sample was quantified by real-time qPCR in ABI Prism 7300 detection system (Applied Biosystems). […] Afterwards, human islets were processed in a similar way as in mouse islet studies for immunostaining of insulin, glucagon, PDX1 and BrdU. β-Cell proliferation rate was determined by quantifying percentage of insulin+ cells with BrdU+. More than 50 islets per group were counted for determining cultured human islet β-cell proliferation rate.

[1] = Serum PDGF-AA by ELISA in NOD-scid mice with osmotic pump; assay type: in vivo, mouse; conditions: control NOD-scid mice, subcutaneous osmotic pump primed with 4 μg PDGF-AA
Text: Exposure of islets from young human donors to purified PDGF-AA stimulates ERK-dependent signaling pathways culminating in enhanced β-cell proliferation. However, these studies have not yet shown if PDGF-AA activation is sufficient to drive regeneration of functional β-cell mass in vivo. To assess this question, equivalent numbers of size-matched islets from young (ages 1-10 years) and control adult donors (age >20 years) were transplanted into NOD-scid mice.

## PDGF-AA: recombinant human PDGF-AA, a homodimer of PDGF alpha polypeptides
EZH2; adult human islets
  EZH2 mRNA levels: not induced
EZH2; juvenile human islets
  EZH2 mRNA levels: increased
Mouse islet β-cells
  β-cell proliferation assessed by BrdU incorporation: increased β-cell proliferation in juvenile islets; also recorded: induces
Human EZH2 locus
  association of E2F1 with the human EZH2 locus (ChIP): stimulated association of E2F1
[1]
  serum PDGF-AA levels: Increased
